{
  "source": "BindingDB's records for doi:10.1021/jm00034a005",
  "about": "(University of Paris, 1994)",
  "data": [
    {"molecular_target": "Neprilysin", "assay": "In vivo inhibitory potency against neutral endopeptidase by displacement of [3H]HACBOGly binding in mouse kidney", "units": {"IC50": "nM"}, "values": [
      {"smiles": "CC(c1ccccc1)C(CS)C(=O)NC(COCc1ccccc1)C(=O)O", "note": "(stereo not given) [3-Benzyloxy-2-(2-mercaptomethyl-3-phenyl-butyrylamino)-propionic acid]", "IC50": 4},
      {"smiles": "CC(c1ccc(O)cc1)C(CS)C(=O)NC(Cc1ccc(O)cc1)C(=O)O", "note": "(stereo not given) [3-(4-Hydroxy-phenyl)-2-[3-(4-hydroxy-phenyl)-2-mercaptomethyl-butyrylamino]-propionic acid]", "IC50": 9},
      {"smiles": "CC(c1ccc(N)cc1)C(CS)C(=O)NC(Cc1ccc(O)cc1)C(=O)O", "note": "(stereo not given) [2-[3-(4-Amino-phenyl)-2-mercaptomethyl-butyrylamino]-3-(4-hydroxy-phenyl)-propionic acid]", "IC50": 16},
      {"smiles": "CC(c1ccc(F)cc1)C(CS)C(=O)NC(Cc1ccc(O)cc1)C(=O)O", "note": "(stereo not given) [2-[3-(4-Fluoro-phenyl)-2-mercaptomethyl-butyrylamino]-3-(4-hydroxy-phenyl)-propionic acid]", "IC50": 5.9},
      {"smiles": "CCC(NC(=O)C(CS)C(C)c1ccccc1)C(=O)O", "note": "(stereo not given) [2-(2-Mercaptomethyl-3-phenyl-butyrylamino)-butyric acid]", "IC50": 6.3},
      {"smiles": "CC(c1ccc(F)c(F)c1)C(CS)C(=O)NC(Cc1ccc(O)cc1)C(=O)O", "note": "(stereo not given) [2-[3-(3,4-Difluoro-phenyl)-2-mercaptomethyl-butyrylamino]-3-(4-hydroxy-phenyl)-propionic acid]", "IC50": 5.2},
      {"smiles": "CC(NC(=O)C(CS)C(C)c1ccc2c(c1)OCO2)C(=O)O", "note": "(stereo not given) [2-(3-Benzo[1,3]dioxol-5-yl-2-mercaptomethyl-butyrylamino)-propionic acid]", "IC50": 2},
      {"smiles": "CC(NC(=O)C(CS)C(C)c1ccc(F)cc1)C(=O)O", "note": "(stereo not given) [2-[3-(4-Fluoro-phenyl)-2-mercaptomethyl-butyrylamino]-propionic acid]", "IC50": 2},
      {"smiles": "O=C(NC(Cc1ccc(O)cc1)C(=O)O)C(CS)Cc1ccccc1", "note": "(stereo not given) [3-(4-Hydroxy-phenyl)-2-(2-mercaptomethyl-3-phenyl-propionylamino)-propionic acid]", "IC50": 2},
      {"smiles": "CC(NC(=O)C(CS)C(C)c1ccc(F)c(F)c1)C(=O)O", "note": "(stereo not given) [2-[3-(3,4-Difluoro-phenyl)-2-mercaptomethyl-butyrylamino]-propionic acid]", "IC50": 3.5}
    ]}
  ]
}
